Assay [1] concerns PC-3. Description: Cytotoxicity against human PC-3 cells assessed as inhibition of cell survival at 2.5 uM incubated for 72 hrs by methylene blue survival assay. The assay is classed as functional.
The target in assay [2] is Baculoviral IAP repeat-containing protein 5 (Homo sapiens) (UniProt O15392). The assay can be described thus: Inhibition of survivin-GAL4-DBD dimerization (unknown origin) expressed in human LNCaP C4-2 cells incubated for 24 hrs by SEAP reporter based mammalian two hybrid assay. The format is cell-based.
Baculoviral IAP repeat-containing protein 5 (Homo sapiens), sequence (O15392 whole entry, the tested form may be a part): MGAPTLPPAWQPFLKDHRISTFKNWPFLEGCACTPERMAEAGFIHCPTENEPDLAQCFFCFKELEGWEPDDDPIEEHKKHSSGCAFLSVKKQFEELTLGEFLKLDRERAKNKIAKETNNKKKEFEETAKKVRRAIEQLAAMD
For assay [3] the target is unchanged. Description: Inhibition of survivin dimerization in human LNCaP C4-2 cells assessed as survivin degradation at 1 uM incubated for 24 hrs by Western blot analysis. The assay is classed as cell-based. On the technique in general: Immunoblotting shows a protein as a band on a membrane.
In assay [4] the test system is PC-3. Description: Cytotoxicity against human PC-3 cells assessed as reduction in cell viability incubated for 72 hrs by methylene blue survival assay. The format is functional, cell-based. The conditions noted are these: PC-3, 72 h.
Assay [5] concerns the target Baculoviral IAP repeat-containing protein 5 (Homo sapiens) (UniProt O15392). The assay can be described thus: Inhibition of survivin dimerization in human PC-3 cells assessed as survivin degradation at 1 uM incubated for 24 hrs by Western blot analysis. The assay is classed as cell-based.
Assay [6] deals with LNCaP C4-2. The assay can be described thus: Cytotoxicity against human LNCaP C4-2 cells assessed as reduction in cell viability incubated for 72 hrs by methylene blue survival assay. The assay is classed as functional, cell-based. The conditions noted are these: LNCaP C4-2, 72 h.
For assay [7], the system named is LNCaP C4-2. Description: Cytotoxicity against human LNCaP C4-2 cells assessed as inhibition of cell survival at 2.5 uM incubated for 72 hrs by methylene blue survival assay. The format is functional.
For assay [8], the system named is LNCaP C4-2. The assay can be described thus: Cytotoxicity against human LNCaP C4-2 cells with empty vector-transfection assessed as reduction in cell viability incubated for 72 hrs by methylene blue survival assay. The assay is classed as functional, cell-based. Conditions: LNCaP C4-2, 72 h.
The target of assay [9] is Baculoviral IAP repeat-containing protein 5 (Homo sapiens) (UniProt O15392). The assay can be described thus: Inhibition of survivin dimerization in human PC-3 cells assessed as survivin degradation at 500 nM incubated for 24 hrs by Western blot analysis. The assay is classed as cell-based.
The subject of assay [10] is LNCaP C4-2. The assay can be described thus: Cytotoxicity against human LNCaP C4-2 cells with survivin overexpression assessed as reduction in cell viability incubated for 72 hrs by methylene blue survival assay. The format is functional, cell-based. The conditions noted are these: LNCaP C4-2, 72 h.
The test system of assay [11] is LNCaP C4-2. Description: Synergistic potentiation of docetaxel-induced cytotoxicity against human LNCaP C4-2 cells assessed as combination index for reduction in cell viability at docetaxel/7F1 ratios ((1:1, 3:1, and 1:3 using their cytotoxic IC50) incubated for 72 hrs by methylene blue survival assay. The assay is classed as functional.
Assay [12] has as its system LNCaP C4-2. Description: Induction of apoptosis in human LNCaP C4-2 cells at 200 nM incubated for 24 hrs by annexin V-FITC and propidium iodide staining based flow cytometry. The assay is classed as functional. Background: In flow cytometry, cells or beads pass a laser one at a time.
Assay [13] relates to LNCaP C4-2. The assay can be described thus: Induction of apoptosis in human LNCaP C4-2 cells assessed as increase in cleaved caspase-3 level at 200 nM incubated for 24 hrs by Western blot analysis. The format is functional, cell-based.
Assay [14] concerns PC-3. The assay can be described thus: Induction of apoptosis in human PC-3 cells at 200 nM incubated for 24 hrs by annexin V-FITC and propidium iodide staining based flow cytometry. The format is functional.
Assay [15] deals with PC-3. The assay can be described thus: Induction of apoptosis in human PC-3 cells assessed as increase in cleaved caspase-3 level at 200 nM incubated for 24 hrs by Western blot analysis. The format is functional, cell-based.
For assay [16], the system named is PC-3. The assay can be described thus: Synergistic potentiation of docetaxel-induced cytotoxicity against human PC-3 cells assessed as combination index for reduction in cell viability at docetaxel/7F1 ratios ((1:1, 3:1, and 1:3 using their cytotoxic IC50) incubated for 72 hrs by methylene blue survival assay. The assay is classed as functional.
In assay [17] the target is Baculoviral IAP repeat-containing protein 5 (Homo sapiens) (UniProt O15392). The assay can be described thus: Inhibition of survivin dimerization in human LNCaP C4-2 cells assessed as survivin degradation at 500 nM incubated for 24 hrs by Western blot analysis. The format is cell-based.

Molecules are shown by their SMILES. The source made the active and inactive calls. The rule behind the calls is not given here.

We go through two compounds from ChEMBL document CHEMBL5143694, “A novel survivin dimerization inhibitor without a labile hydrazone linker induces spontaneous apoptosis and synergizes with docetaxel in prostate cancer cells” (Bioorg Med Chem, 2022).

A word on the inhibition: it is the relative decrease from the control value, in per cent. The term IC50 denotes the concentration needed to halve the response being measured.

As to `Nc1nonc1C(=O)N/N=C1\c2ccccc2-c2nc3nonc3nc21`, the inhibition at 2.5 µM in assay [1] and in [7] was 50% throughout. The inhibition result in [2], in assay [3] and in assay [5] was “Active” in each case. For the same compound, the IC50 in assay [4] worked out at 2990 nM; in assay [6], 2470 nM.

`O=C1c2ccccc2-c2nc3nonc3nc21`: the IC50 in [8] turned out to be 200 nM; in [10] it was 950 nM; in assay [4] it was 160 nM; in assay [6], 170 nM. Besides, the figures for the inhibition at 2.5 µM in assay [1] and in [7] were greater than 80% and 80%, respectively. For the same compound, the inhibition result in assay [2], in [3], in assay [9], in [5] and in assay [17] was “Active” each time. In addition, the CI in assay [11] and in assay [16] was 0.025 each time. The Activity in [12] and in assay [14] was 20% each time. The result in assay [13] and in assay [15] was Active.
